Source: PubChem BioAssay AID220 (DTP/NCI, 2004)
Values joined by “and” are separate entries in the source; they are usually repeats but may differ in a detail not shown here. Equal values may be shown once. Results filed as inconclusive are left out. Residues, ends and D or L forms follow the SMILES beside them. *: point of attachment. Trt = c1ccc(C(c2ccccc2)(c2ccccc2)*)cc1; Cbz = O=C(OCc1ccccc1)*; Bn = c1ccc(C*)cc1; βAla = NCCC(=O)O

System: CD8F1 mice, subcutaneous mammary adenocarcinoma, T/C%
Assay: NCI In Vivo Anticancer Drug Screen. Data for tumor model Mammary Adenocarcinoma CD8F1 (subcutaneous) in CD8F1
Settings: higher = larger tumour
In short: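 Transplantable tumors were established in mice, animals were dosed with compound or vehicle, and survival or tumor size was then measured in both groups. The treated result was divided by the control result.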

[1] = endpoint: median tumor weight (est.), dose: 4.0 mg/kg/injection, schedule: Q07DX005 (ip), vehicle: saline
[2] = endpoint: median tumor weight (est.), dose: 8.0 mg/kg/injection, schedule: Q07DX005 (ip), vehicle: saline
[3] = endpoint: median tumor weight (est.), dose: 16.0 mg/kg/injection, schedule: Q07DX005 (ip), vehicle: saline
[4] = endpoint: median tumor weight (est.), dose: 12.5 mg/kg/injection, schedule: Q07DX005 (ip), vehicle: saline
[5] = endpoint: median tumor weight (est.), dose: 25.0 mg/kg/injection, schedule: Q07DX005 (ip), vehicle: saline

`Nc1ncn(C2OC(CO)C(O)C2O)c(=O)n1` (stereo unspecified) was tested, and the T/C (endpoint: mean tumor weight (est.), dose: 2.0 mg/kg/injection, schedule: Q07DX003 (ip), vehicle: other) was 58 % of control, the T/C (endpoint: mean tumor weight (est.), dose: 8.0 mg/kg/injection, schedule: Q07DX003 (ip), vehicle: other) was 32 % of control and the T/C (endpoint: median tumor weight (est.), dose: 1.0 mg/kg/injection, schedule: Q07DX005 (ip), vehicle: saline) was 63 % of control. The T/C (endpoint: median tumor weight (est.), dose: 2.0 mg/kg/injection, schedule: Q07DX005 (ip), vehicle: saline) was 81 % of control, the T/C [1] was 22 % of control and the T/C [2] was 20 % of control. For the same compound, the T/C (endpoint: median tumor weight (est.), dose: 8.0 mg/kg/injection, schedule: Q07DX005 (ip), vehicle: suspension in saline) was 22 % of control, the T/C [3] was 3 % of control and the T/C (endpoint: median tumor weight (est.), dose: 16.0 mg/kg/injection, schedule: Q07DX005 (ip), vehicle: suspension in saline) was 2 % of control. The T/C (endpoint: median tumor weight change, dose: 3.75 mg/kg/injection, schedule: Q01DX001 (ip), vehicle: saline) was 89 % of control, the T/C (endpoint: median tumor weight change, dose: 7.5 mg/kg/injection, schedule: Q01DX001 (ip), vehicle: saline) was 45 % of control and the T/C (endpoint: median tumor weight change, dose: 15.0 mg/kg/injection, schedule: Q01DX001 (ip), vehicle: saline) was 38 % of control. The T/C (endpoint: median tumor weight change, dose: 30.0 mg/kg/injection, schedule: Q01DX001 (ip), vehicle: saline) was 36 % of control, the T/C (endpoint: median tumor weight change, dose: 62.5 mg/kg/injection, schedule: Q01DX001 (ip), vehicle: saline) was 123 % of control and the T/C (endpoint: median tumor weight change, dose: 125.0 mg/kg/injection, schedule: Q01DX001 (ip), vehicle: saline) was 103 % of control. For the same compound, the T/C (endpoint: median tumor weight change, dose: 135.0 mg/kg/injection, schedule: Q01DX001 (ip), vehicle: saline) was 44 % of control, the T/C (endpoint: median tumor weight change, dose: 250.0 mg/kg/injection, schedule: Q01DX001 (ip), vehicle: saline) was 86 % of control and the T/C (endpoint: median tumor weight change, dose: 500.0 mg/kg/injection, schedule: Q01DX001 (ip), vehicle: saline) was 106 % of control. The T/C (endpoint: median tumor weight change, dose: 600.0 mg/kg/injection, schedule: Q01DX001 (ip), vehicle: suspension in saline) was 17 % of control, the T/C (endpoint: median tumor weight change, dose: 1000.0 mg/kg/injection, schedule: Q01DX001 (ip), vehicle: saline) was 103 % of control and the T/C (endpoint: median tumor weight change, dose: 1350.0 mg/kg/injection, schedule: Q01DX001 (ip), vehicle: suspension in saline) was -11 % of control. For the same compound, the T/C (endpoint: median tumor weight change, dose: 1800.0 mg/kg/injection, schedule: Q01DX001 (ip), vehicle: suspension in saline) was 60 % of control, the T/C (endpoint: median tumor weight change, dose: 2025.0 mg/kg/injection, schedule: Q01DX001 (ip), vehicle: suspension in saline) was 16 % of control and the T/C (endpoint: median tumor weight change, dose: 3600.0 mg/kg/injection, schedule: Q01DX001 (ip), vehicle: suspension in saline) was 43 % of control.
With `COc1cccc2c1C(=O)c1c(O)c3c(c(O)c1C2=O)C[C@@](O)(/C(C)=N/NC(=O)c1cccc([N+](=O)[O-])c1)C[C@@H]3OC1CC(N)C(O)C(C)O1` (stereo partly specified) the T/C (endpoint: mean tumor weight, dose: 4.0 mg/kg/injection, schedule: Q07DX004 (ip), vehicle: saline) was 98 % of control, the T/C (endpoint: mean tumor weight, dose: 8.0 mg/kg/injection, schedule: Q07DX004 (ip), vehicle: saline) was 51 % of control and the T/C (endpoint: mean tumor weight, dose: 16.0 mg/kg/injection, schedule: Q07DX004 (ip), vehicle: saline) was 94 % of control. The T/C (endpoint: mean tumor weight, dose: 32.0 mg/kg/injection, schedule: Q07DX004 (ip), vehicle: saline) was 1 % of control, the T/C [1] was 93 % of control and the T/C [2] was 41 % of control. The T/C [3] was 5 % of control.
For `COC(=O)C(CSC(c1ccccc1)(c1ccccc1)c1ccccc1)NC(=O)C(CSCc1ccccc1)NC(=O)CCNC(=O)OCc1ccccc1` (stereo unspecified) ({Cbz-βAla}-Cys(Bn)-Cys(Trt)-OMe; configuration not given here), the T/C (endpoint: median tumor weight change, dose: 250.0 mg/kg/injection, schedule: Q01DX001 (ip), vehicle: Klucel (hydroxypropylcellulose) (HPC)) was 107 % of control, the T/C (endpoint: median tumor weight change, dose: 500.0 mg/kg/injection, schedule: Q01DX001 (ip), vehicle: Klucel (hydroxypropylcellulose) (HPC)) was 95 % of control and the T/C (endpoint: median tumor weight change, dose: 1000.0 mg/kg/injection, schedule: Q01DX001 (ip), vehicle: Klucel (hydroxypropylcellulose) (HPC)) was 90 % of control. For the same compound, the T/C (endpoint: median tumor weight change, dose: 2000.0 mg/kg/injection, schedule: Q01DX001 (ip), vehicle: Klucel (hydroxypropylcellulose) (HPC)) was 84 % of control.
For `COc1cccc2c1C(=O)c1c(O)c3c(c(O)c1C2=O)C[C@@](O)(C(=O)CO)C[C@@H]3OC1CC(OC(C)=O)C(OC(C)=O)C(C)O1` (stereo partly specified), the T/C (endpoint: median tumor weight (est.), dose: 3.12 mg/kg/injection, schedule: Q07DX005 (ip), vehicle: distilled water + Tween-80) was 65 % of control, the T/C (endpoint: median tumor weight (est.), dose: 6.25 mg/kg/injection, schedule: Q07DX005 (ip), vehicle: distilled water + Tween-80) was 58 % of control and the T/C (endpoint: median tumor weight (est.), dose: 12.5 mg/kg/injection, schedule: Q07DX005 (ip), vehicle: distilled water + Tween-80) was 6 % of control. For the same compound, the T/C (endpoint: median tumor weight (est.), dose: 25.0 mg/kg/injection, schedule: Q07DX005 (ip), vehicle: distilled water + Tween-80) was 13 % of control.
For `CC[C@]1(O)C[C@H](OC2CC(N(C)C)C(OC3CC(O)C(O)C(C)O3)C(C)O2)c2c(cc3c(c2O)C(=O)c2c(O)ccc(O)c2C3=O)[C@H]1C(=O)OC` (stereo partly specified), the T/C (endpoint: median tumor weight (est.), dose: 0.5 mg/kg/injection, schedule: Q07DX005 (ip), vehicle: Klucel (hydroxypropylcellulose) (HPC)) was 170 % of control, the T/C (endpoint: median tumor weight (est.), dose: 1.0 mg/kg/injection, schedule: Q07DX005 (ip), vehicle: Klucel (hydroxypropylcellulose) (HPC)) was 204 % of control and the T/C (endpoint: median tumor weight (est.), dose: 4.0 mg/kg/injection, schedule: Q07DX005 (ip), vehicle: Klucel (hydroxypropylcellulose) (HPC)) was 63 % of control.
In the case of `OCC1(CO)COC2(CCCCC2)N1`, the T/C [4] is reported as 78 % of control, the T/C [5] is reported as 64 % of control and the T/C (endpoint: median tumor weight (est.), dose: 50.0 mg/kg/injection, schedule: Q07DX005 (ip), vehicle: saline) is reported as 112 % of control. For the same compound, the T/C (endpoint: median tumor weight (est.), dose: 100.0 mg/kg/injection, schedule: Q07DX005 (ip), vehicle: saline) was 105 % of control, the T/C (endpoint: median tumor weight (est.), dose: 200.0 mg/kg/injection, schedule: Q07DX005 (ip), vehicle: saline) was 81 % of control and the T/C (endpoint: median tumor weight (est.), dose: 400.0 mg/kg/injection, schedule: Q07DX005 (ip), vehicle: saline) was 93 % of control.
With `CCCCCC[Se][Se]CCCCCC` the T/C (endpoint: median tumor weight change, dose: 31.25 mg/kg/injection, schedule: Q01DX001 (ip), vehicle: Klucel (hydroxypropylcellulose) (HPC)) was 116 % of control and the T/C (endpoint: median tumor weight change, dose: 62.5 mg/kg/injection, schedule: Q01DX001 (ip), vehicle: Klucel (hydroxypropylcellulose) (HPC)) was 159 % of control.
With `CC(=O)C1=C(O)C2(O)C(=O)c3c(c(C)c4ccc(C)c(O)c4c3O)CC2C(N)C1=O` (stereo unspecified) the T/C (endpoint: median tumor weight change, dose: 37.5 mg/kg/injection, schedule: Q01DX001 (ip), vehicle: saline + alcohol) was 72 % of control, the T/C (endpoint: median tumor weight change, dose: 38.0 mg/kg/injection, schedule: Q01DX001 (ip), vehicle: saline + alcohol) was 100 % of control and the T/C (endpoint: median tumor weight change, dose: 75.0 mg/kg/injection, schedule: Q01DX001 (ip), vehicle: saline + alcohol) was 46 % of control and 60 % of control. The T/C (endpoint: median tumor weight change, dose: 150.0 mg/kg/injection, schedule: Q01DX001 (ip), vehicle: saline + alcohol) was 49 % of control.
`O=C(O)CSc1nc(-c2ccccc2)c(-c2ccccc2)n1-c1ccccn1` was tested, and the T/C (endpoint: median tumor weight (est.), dose: 12.5 mg/kg/injection, schedule: Q07DX005 (ip), vehicle: water) was 63 % of control and 72 % of control, the T/C (endpoint: median tumor weight (est.), dose: 25.0 mg/kg/injection, schedule: Q07DX005 (ip), vehicle: water) was 217 % of control and 78 % of control and the T/C (endpoint: median tumor weight (est.), dose: 200.0 mg/kg/injection, schedule: Q07DX005 (ip), vehicle: water) was 64 % of control.
For `COc1cccc(C2NC(=O)c3c(n[nH]c3N)S2)c1O` (stereo unspecified), the T/C (endpoint: median tumor weight change, dose: 112.5 mg/kg/injection, schedule: Q01DX001 (ip), vehicle: saline with Tween-80) was 71 % of control, the T/C (endpoint: median tumor weight change, dose: 225.0 mg/kg/injection, schedule: Q01DX001 (ip), vehicle: saline with Tween-80) was 91 % of control and the T/C (endpoint: median tumor weight change, dose: 450.0 mg/kg/injection, schedule: Q01DX001 (ip), vehicle: saline with Tween-80) was 92 % of control. The T/C (endpoint: median tumor weight change, dose: 900.0 mg/kg/injection, schedule: Q01DX001 (ip), vehicle: saline with Tween-80) was 76 % of control and the T/C (endpoint: median tumor weight change, dose: 1800.0 mg/kg/injection, schedule: Q01DX001 (ip), vehicle: saline with Tween-80) was 79 % of control.
For `CC[C@](O)(C(=O)O)c1cc2n(c(=O)c1CO)Cc1cc3ccccc3nc1-2`, the T/C (endpoint: mean tumor weight (est.), dose: 20.0 mg/kg/injection, schedule: Q07DX004 (ip), vehicle: saline) was 70 % of control, the T/C (endpoint: mean tumor weight (est.), dose: 40.0 mg/kg/injection, schedule: Q07DX004 (ip), vehicle: saline) was 61 % of control and the T/C (endpoint: mean tumor weight (est.), dose: 60.0 mg/kg/injection, schedule: Q07DX004 (ip), vehicle: saline) was 48 % of control. The T/C (endpoint: mean tumor weight, dose: 2.5 mg/kg/injection, schedule: Q01DX009 (ip), vehicle: saline) was 55 % of control, the T/C (endpoint: mean tumor weight, dose: 10.0 mg/kg/injection, schedule: Q07DX006 (ip), vehicle: saline) was 13 % of control and the T/C (endpoint: mean tumor weight, dose: 20.0 mg/kg/injection, schedule: Q07DX006 (ip), vehicle: saline) was 36 % of control and 42 % of control. For the same compound, the T/C (endpoint: mean tumor weight, dose: 20.0 mg/kg/injection, schedule: Q07DX007 (ip), vehicle: saline) was 102 % of control, the T/C (endpoint: mean tumor weight, dose: 40.0 mg/kg/injection, schedule: Q07DX006 (ip), vehicle: saline) was 23 % of control and the T/C (endpoint: mean tumor weight, dose: 40.0 mg/kg/injection, schedule: Q07DX007 (ip), vehicle: saline) was 71 % of control. For the same compound, the T/C (endpoint: mean tumor weight, dose: 60.0 mg/kg/injection, schedule: Q07DX006 (ip), vehicle: saline) was 2 % of control, the T/C (endpoint: mean tumor weight, dose: 80.0 mg/kg/injection, schedule: Q07DX007 (ip), vehicle: saline) was 49 % of control and the T/C (endpoint: median tumor weight (est.), dose: 6.25 mg/kg/injection, schedule: Q07DX005 (ip), vehicle: saline) was 58 % of control. For the same compound, the T/C [4] was 59 % of control and the T/C [5] was 41 % of control.
